1 substance from US9334473B2, “Three dimensional cell culture compositions and methods of use” (priority 2012, dated 2016) can be followed below.

The assay concerns human neutrophils. Description: Chemotaxis of neutrophils suspended inside G041 substrate in a gradient. Format: cell-based. The conditions noted are these: 45-minute video. The text has this:
For materials in the Examples 2-4, substrates were punched or cut into shapes, sterilized and used to setup gradients of one or more ingredients. In some tests, gradients were further applied to cells in culture. In other tests, suspension of uncultured cells was suspended inside the substrate to which a gradient was applied.
As shown in Example 9 (Brain Culture #5) cells survived without free (substrate-unbound) medium, if overlapped by another substrate with the embedded medium. Accordingly, molecule diffusion studies, and this included gradients formed in one or more substrates, were maintained for longer periods of time without significant gradient “dilution” (by otherwise present surrounding pool of medium) when applied to cells in culture (or to uncultured cells suspended inside the substrate) by way of a substrate overlap method. In short term studies in a humidified incubator, neutrophils were exposed to a gradient inside the substrate, and the substrate was not overlapped by another substrate, yet a significant fraction of cells taxed in a suitable gradient.

As for “Interleukin 8: cytokine applied as a gradient to neutrophils”, the “Chemotaxis in applied gradient” value is “Chemotaxis of human neutrophils”.
